Source: patent publication US12275731B2, “Azaindole inhibitors of wild-type and mutant forms of LRRK2” (DANA-FARBER CANCER INSTITUTE, INC., priority 2018, dated 2025)

Legend:
Assay in all cases: KinomeScan profiling
Assay type in all cases: binding
[1] = target: T1, EPHB6 (Homo sapiens, UniProt O15197); details: EPHB6, 1 μM; read-out: % control
T1 sequence (O15197 32-1021): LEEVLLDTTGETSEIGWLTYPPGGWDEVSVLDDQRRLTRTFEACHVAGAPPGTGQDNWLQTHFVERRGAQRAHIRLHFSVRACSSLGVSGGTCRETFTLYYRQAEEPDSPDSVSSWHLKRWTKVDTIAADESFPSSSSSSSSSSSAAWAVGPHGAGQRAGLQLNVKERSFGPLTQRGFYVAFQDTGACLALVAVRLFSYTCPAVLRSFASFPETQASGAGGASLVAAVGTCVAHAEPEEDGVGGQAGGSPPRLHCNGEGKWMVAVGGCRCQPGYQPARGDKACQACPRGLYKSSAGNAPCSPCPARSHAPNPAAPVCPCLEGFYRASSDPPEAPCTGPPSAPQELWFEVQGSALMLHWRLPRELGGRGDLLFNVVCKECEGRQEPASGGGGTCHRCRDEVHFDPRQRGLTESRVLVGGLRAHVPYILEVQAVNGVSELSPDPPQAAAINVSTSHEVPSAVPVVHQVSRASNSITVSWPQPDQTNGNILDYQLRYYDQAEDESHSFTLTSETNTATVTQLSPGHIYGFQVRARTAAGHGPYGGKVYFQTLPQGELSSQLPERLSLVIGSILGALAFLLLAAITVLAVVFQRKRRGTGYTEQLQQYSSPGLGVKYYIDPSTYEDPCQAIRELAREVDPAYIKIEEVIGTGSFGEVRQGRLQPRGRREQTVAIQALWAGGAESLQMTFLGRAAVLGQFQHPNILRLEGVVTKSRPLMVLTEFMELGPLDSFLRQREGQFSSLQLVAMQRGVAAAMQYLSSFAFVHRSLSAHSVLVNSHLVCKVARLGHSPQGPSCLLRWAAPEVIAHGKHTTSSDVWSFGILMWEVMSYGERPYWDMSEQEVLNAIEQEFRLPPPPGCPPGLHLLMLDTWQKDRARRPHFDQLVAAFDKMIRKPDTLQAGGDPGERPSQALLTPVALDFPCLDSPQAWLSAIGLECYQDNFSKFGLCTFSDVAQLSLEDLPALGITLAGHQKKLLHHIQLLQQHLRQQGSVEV
In short: (§1)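 At 1 μM in DMSO, compounds are run through a broad 468-member kinase panel. The luminescent read-out is normalised so that vehicle gives 100% and a positive control gives 0%; any kinase falling below 35% is treated as a target.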

[2] = target: GSK3B (Homo sapiens, UniProt P49841); details: read-out: % control
In short: as §1

[3] = target: T2, STK36 (Homo sapiens, UniProt Q9NRP7); details: STK36, 1 μM; read-out: % control
T2 construct: purchased KinomeScan® (panel service)
T2 sequence (Q9NRP7 1-1315): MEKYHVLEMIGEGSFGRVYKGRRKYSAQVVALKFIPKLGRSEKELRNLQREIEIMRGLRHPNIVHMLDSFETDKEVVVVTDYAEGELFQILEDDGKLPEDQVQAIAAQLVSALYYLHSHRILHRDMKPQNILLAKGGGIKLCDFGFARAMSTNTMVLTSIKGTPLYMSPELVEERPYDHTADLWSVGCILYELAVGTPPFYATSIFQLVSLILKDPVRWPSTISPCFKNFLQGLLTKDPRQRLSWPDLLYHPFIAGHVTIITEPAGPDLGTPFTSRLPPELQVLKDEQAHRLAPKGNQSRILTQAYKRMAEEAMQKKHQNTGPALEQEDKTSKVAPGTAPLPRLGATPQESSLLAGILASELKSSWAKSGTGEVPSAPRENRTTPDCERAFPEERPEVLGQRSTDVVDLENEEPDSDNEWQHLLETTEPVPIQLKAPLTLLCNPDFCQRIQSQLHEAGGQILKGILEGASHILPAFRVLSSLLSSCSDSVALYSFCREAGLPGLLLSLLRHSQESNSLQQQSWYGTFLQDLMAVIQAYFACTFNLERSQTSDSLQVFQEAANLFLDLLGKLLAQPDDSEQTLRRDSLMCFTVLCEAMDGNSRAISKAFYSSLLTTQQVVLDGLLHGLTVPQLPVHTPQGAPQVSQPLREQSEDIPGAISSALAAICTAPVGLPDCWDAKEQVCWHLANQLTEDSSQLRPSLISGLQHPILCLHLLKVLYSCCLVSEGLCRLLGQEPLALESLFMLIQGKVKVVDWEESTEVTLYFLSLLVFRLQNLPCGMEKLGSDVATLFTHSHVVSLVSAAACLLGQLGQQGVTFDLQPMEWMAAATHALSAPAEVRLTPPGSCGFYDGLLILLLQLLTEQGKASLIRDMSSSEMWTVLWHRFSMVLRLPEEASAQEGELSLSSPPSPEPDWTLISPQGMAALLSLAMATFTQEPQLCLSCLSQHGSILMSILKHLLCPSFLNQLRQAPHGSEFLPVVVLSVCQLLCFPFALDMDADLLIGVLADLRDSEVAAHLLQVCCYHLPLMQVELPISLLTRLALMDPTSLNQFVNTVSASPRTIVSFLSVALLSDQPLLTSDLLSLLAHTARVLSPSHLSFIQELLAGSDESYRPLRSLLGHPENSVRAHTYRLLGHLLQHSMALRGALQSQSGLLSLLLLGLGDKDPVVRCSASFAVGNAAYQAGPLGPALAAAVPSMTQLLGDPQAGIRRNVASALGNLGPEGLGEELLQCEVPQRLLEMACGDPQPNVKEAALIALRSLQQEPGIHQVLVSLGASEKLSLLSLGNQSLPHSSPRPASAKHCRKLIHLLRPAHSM
In short: as §1

Chain of GSK3B (P49841 whole entry): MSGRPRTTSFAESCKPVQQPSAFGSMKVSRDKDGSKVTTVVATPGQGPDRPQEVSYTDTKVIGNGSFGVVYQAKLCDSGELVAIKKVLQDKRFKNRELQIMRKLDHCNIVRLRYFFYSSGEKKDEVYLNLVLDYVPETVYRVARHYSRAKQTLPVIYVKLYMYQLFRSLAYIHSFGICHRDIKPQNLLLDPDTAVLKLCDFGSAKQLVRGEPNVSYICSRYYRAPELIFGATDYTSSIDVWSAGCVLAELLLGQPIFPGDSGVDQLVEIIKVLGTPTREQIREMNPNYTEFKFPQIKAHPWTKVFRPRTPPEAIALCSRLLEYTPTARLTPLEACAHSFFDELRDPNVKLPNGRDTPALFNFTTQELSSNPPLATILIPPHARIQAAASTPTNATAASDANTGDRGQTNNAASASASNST

Compound | remaining binding at 1 µM [1] [%] | remaining binding at 1 µM [2] [%] | remaining binding at 1 µM [3] [%]
CNc1c(-c2ccc(C(=O)N3CCC(N4CCOCC4)CC3)cc2)cnc2[nH]cc(Cl)c12 [Compound 96, (4-(3-chloro-4-(methylamino)-1H-pyrrolo[2,3-b]pyridin-5-yl)phenyl)(4-morpholinopiperidin-1-yl)methanone] | 99 | 63 | 99
O=C(c1ccc(-c2cnc3[nH]cc(Cl)c3c2NC2CCCC2)cc1)N1CCC(N2CCOCC2)CC1 [Compound 101, (4-(3-chloro-4-(cyclopentylamino)-1H-pyrrolo[2,3-b]pyridin-5-yl)phenyl)(4-morpholinopiperidin-1-yl)methanone] | 100 | 100 | 96
CNc1c(-c2cnn([C@H]3CCN(C(C)=O)C[C@@H]3F)c2)cnc2[nH]cc(Cl)c12 [Compound 77, 1-((3S,4S)-4-(4-(3-chloro-4-(methylamino)-1H-pyrrolo[2,3-b]pyridin-5-yl)-1H-pyrazol-1-yl)-3-fluoropiperidin-1-yl)ethan-1-one] | 55 | 69 | 100
